Measurements: paper PMC8213057, “Targeting ALK2: An Open Science Approach to Developing Therapeutics for the Treatment of Diffuse Intrinsic Pontine Glioma” (Journal of Medicinal Chemistry, 2020)

Columns and labels:
[1] = target: T1, NEK9 (Homo sapiens, UniProt Q8TD19); settings: 1 μM; Run 1, Run 2
T1 sequence (Q8TD19 1-979): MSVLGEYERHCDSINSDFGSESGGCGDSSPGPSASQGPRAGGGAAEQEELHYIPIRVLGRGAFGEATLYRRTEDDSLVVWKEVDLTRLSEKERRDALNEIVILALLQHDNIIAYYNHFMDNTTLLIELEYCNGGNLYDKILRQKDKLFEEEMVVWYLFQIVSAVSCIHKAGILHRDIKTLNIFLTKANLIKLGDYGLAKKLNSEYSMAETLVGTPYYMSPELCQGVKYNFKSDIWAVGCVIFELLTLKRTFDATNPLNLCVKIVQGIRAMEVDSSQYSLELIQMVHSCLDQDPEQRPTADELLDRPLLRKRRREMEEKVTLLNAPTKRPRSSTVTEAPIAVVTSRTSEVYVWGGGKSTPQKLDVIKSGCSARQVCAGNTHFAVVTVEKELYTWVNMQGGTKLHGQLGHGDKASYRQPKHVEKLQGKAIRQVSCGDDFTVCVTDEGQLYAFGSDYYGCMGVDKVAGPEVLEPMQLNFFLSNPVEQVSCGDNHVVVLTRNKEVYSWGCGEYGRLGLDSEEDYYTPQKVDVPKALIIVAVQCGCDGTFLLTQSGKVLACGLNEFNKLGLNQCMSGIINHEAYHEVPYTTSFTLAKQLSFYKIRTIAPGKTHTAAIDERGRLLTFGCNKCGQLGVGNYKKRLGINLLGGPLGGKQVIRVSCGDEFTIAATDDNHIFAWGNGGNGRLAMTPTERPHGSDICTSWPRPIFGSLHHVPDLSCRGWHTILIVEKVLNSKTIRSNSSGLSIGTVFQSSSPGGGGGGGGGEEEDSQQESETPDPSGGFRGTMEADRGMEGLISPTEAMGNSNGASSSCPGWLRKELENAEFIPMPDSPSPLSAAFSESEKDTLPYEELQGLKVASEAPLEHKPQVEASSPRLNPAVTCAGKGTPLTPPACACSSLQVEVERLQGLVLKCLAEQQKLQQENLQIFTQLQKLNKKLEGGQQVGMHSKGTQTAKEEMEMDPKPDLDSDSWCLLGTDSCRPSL

[2] = target: AKT1 (Homo sapiens, UniProt P31749); test: biochemical; settings: read-out: % enzyme activity, 1 μM; Run 1, Run 2
AKT1, sequence (P31749 whole entry): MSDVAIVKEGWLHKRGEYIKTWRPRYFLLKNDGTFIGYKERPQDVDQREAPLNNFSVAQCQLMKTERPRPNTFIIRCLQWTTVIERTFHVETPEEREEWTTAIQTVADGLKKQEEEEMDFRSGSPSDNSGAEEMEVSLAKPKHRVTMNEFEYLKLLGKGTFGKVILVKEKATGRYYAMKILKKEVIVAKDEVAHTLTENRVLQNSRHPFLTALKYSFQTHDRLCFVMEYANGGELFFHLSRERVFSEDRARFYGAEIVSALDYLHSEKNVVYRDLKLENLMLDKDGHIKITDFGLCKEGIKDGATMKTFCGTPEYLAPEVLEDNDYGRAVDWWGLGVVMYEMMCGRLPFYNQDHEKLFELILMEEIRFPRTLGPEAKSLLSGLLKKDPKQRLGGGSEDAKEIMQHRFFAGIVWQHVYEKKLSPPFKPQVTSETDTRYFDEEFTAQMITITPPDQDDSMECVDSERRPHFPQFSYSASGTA

[3] = target: STK33 (Homo sapiens, UniProt Q9BYT3); settings: 1 μM; Run 1, Run 2
STK33, sequence (Q9BYT3 whole entry): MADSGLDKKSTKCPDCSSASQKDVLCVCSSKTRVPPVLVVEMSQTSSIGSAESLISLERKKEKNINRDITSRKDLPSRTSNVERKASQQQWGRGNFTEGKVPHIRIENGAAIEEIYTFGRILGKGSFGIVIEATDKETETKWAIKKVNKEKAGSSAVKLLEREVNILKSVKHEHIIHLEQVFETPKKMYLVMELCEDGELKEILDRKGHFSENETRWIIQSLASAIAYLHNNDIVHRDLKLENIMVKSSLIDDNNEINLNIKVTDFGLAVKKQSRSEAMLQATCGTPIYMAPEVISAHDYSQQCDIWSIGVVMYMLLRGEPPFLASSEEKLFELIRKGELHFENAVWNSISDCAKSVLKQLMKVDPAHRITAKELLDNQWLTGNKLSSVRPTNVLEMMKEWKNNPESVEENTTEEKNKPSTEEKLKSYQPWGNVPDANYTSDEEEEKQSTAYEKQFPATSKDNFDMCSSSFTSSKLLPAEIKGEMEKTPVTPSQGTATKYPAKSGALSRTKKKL

[4] = target: MAPKAPK2 (Homo sapiens, UniProt P49137); test: biochemical; settings: read-out: % enzyme activity, 1 μM; Run 1, Run 2
MAPKAPK2, sequence (P49137 whole entry): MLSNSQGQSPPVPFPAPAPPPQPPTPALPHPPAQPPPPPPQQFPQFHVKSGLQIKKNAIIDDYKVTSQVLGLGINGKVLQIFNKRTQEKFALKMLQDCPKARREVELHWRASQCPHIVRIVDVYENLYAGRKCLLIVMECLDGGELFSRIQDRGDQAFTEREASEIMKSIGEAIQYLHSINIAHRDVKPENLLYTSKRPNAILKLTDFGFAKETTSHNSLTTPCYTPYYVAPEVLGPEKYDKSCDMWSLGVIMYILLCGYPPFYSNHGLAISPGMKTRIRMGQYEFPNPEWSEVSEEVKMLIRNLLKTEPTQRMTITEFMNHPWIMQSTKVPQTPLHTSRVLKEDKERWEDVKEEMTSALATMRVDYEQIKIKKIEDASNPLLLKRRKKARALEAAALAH

[5] = target: T2, TGFBR2 (Homo sapiens, UniProt P37173); test: 375-member kinase panel; format: biochemical; settings: Run 1, Run 2; for % enzyme activity: 1 μM; for remaining activity at 1 µM: read-out: % enzyme activity, 1 μM
T2 construct: purchased Reaction Biology Corporation
T2 sequence (P37173 23-567): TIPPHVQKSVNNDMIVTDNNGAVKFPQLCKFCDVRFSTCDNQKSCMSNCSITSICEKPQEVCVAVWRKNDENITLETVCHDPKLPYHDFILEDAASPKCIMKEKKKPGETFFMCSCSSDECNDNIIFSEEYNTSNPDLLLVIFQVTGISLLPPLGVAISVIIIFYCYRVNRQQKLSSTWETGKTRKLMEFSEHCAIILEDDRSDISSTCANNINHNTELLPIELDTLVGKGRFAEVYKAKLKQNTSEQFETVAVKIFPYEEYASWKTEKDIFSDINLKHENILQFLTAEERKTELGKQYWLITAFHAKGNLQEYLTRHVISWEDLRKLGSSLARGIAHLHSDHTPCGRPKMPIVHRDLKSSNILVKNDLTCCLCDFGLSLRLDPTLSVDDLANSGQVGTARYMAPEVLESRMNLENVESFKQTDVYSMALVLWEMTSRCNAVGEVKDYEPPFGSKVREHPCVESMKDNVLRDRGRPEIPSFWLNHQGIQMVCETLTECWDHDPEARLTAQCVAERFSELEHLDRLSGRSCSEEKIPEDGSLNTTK

[6] = target: T3, ULK1 (Homo sapiens, UniProt O75385); test: biochemical; settings: read-out: % enzyme activity, 1 μM; Run 1, Run 2
T3 sequence (O75385 1-1050): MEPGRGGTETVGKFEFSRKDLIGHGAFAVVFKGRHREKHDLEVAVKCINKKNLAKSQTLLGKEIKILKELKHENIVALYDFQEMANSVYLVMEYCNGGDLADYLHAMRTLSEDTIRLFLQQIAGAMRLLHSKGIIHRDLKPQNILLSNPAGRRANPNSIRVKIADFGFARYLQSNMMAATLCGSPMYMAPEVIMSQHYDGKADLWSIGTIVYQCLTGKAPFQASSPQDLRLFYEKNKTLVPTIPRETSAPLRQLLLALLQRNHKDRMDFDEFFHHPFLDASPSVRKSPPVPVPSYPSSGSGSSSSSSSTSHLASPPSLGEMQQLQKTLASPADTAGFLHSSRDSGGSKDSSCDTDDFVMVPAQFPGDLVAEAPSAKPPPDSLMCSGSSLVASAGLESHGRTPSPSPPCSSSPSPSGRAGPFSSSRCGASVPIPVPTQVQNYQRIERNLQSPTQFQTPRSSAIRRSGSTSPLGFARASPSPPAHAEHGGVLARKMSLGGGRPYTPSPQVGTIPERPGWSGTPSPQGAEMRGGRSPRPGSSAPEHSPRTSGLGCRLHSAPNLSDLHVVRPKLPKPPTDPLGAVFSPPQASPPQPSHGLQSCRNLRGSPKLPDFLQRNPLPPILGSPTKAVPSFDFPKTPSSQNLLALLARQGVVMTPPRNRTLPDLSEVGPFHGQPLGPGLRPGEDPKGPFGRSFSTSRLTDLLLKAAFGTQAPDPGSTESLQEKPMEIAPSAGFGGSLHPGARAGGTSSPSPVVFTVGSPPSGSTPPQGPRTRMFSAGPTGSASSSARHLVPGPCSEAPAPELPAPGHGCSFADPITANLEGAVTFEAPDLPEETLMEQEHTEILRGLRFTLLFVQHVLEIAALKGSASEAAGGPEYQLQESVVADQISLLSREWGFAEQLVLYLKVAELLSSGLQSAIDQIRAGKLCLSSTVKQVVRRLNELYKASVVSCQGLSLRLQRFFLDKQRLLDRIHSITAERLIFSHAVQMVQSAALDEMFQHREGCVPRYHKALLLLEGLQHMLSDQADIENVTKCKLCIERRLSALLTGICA

[7] = target: T4, VRK1 (Homo sapiens, UniProt Q99986); test: biochemical; settings: read-out: % enzyme activity, 1 μM; Run 1, Run 2
T4 sequence (Q99986 1-396): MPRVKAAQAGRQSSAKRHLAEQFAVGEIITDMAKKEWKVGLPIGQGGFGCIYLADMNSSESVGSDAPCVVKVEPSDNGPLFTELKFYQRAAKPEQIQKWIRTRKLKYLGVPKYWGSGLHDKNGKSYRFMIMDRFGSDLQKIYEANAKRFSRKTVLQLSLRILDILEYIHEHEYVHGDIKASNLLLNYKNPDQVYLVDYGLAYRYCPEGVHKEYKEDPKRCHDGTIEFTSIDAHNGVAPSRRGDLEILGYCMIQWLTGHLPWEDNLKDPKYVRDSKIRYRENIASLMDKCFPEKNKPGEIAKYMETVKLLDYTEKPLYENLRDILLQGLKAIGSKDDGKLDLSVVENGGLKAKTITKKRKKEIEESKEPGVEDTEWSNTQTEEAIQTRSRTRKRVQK

[8] = target: PKN3/PRK3 (Homo sapiens, UniProt Q6P5Z2); test: biochemical; settings: read-out: % enzyme activity, 1 μM; Run 1, Run 2
PKN3/PRK3, sequence (Q6P5Z2 whole entry): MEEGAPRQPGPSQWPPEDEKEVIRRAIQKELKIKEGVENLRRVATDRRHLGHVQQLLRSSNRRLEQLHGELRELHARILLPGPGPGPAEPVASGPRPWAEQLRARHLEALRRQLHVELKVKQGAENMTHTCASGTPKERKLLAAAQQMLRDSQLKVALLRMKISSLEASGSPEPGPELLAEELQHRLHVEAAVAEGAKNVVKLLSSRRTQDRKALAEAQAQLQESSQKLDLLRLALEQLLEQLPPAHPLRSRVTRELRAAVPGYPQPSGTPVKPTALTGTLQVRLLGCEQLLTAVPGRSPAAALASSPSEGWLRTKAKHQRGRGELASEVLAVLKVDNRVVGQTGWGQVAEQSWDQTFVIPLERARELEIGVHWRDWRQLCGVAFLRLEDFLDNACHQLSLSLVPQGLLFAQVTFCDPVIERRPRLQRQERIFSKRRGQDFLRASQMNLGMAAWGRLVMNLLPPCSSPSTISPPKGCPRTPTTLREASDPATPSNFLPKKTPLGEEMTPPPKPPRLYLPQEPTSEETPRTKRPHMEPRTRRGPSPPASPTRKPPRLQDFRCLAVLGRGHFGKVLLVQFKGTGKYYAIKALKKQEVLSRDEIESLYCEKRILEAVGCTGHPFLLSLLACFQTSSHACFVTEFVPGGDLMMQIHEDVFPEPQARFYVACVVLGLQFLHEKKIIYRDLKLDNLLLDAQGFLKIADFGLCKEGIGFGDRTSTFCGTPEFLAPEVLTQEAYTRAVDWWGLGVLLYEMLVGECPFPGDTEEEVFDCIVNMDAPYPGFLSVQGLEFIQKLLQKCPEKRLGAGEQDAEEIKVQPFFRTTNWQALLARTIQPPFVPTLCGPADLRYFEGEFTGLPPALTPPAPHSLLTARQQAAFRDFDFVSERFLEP

[9] = target: PDGFRa (Homo sapiens, UniProt P16234); settings: 1 μM; Run 1, Run 2
PDGFRa, sequence (P16234 24-1089): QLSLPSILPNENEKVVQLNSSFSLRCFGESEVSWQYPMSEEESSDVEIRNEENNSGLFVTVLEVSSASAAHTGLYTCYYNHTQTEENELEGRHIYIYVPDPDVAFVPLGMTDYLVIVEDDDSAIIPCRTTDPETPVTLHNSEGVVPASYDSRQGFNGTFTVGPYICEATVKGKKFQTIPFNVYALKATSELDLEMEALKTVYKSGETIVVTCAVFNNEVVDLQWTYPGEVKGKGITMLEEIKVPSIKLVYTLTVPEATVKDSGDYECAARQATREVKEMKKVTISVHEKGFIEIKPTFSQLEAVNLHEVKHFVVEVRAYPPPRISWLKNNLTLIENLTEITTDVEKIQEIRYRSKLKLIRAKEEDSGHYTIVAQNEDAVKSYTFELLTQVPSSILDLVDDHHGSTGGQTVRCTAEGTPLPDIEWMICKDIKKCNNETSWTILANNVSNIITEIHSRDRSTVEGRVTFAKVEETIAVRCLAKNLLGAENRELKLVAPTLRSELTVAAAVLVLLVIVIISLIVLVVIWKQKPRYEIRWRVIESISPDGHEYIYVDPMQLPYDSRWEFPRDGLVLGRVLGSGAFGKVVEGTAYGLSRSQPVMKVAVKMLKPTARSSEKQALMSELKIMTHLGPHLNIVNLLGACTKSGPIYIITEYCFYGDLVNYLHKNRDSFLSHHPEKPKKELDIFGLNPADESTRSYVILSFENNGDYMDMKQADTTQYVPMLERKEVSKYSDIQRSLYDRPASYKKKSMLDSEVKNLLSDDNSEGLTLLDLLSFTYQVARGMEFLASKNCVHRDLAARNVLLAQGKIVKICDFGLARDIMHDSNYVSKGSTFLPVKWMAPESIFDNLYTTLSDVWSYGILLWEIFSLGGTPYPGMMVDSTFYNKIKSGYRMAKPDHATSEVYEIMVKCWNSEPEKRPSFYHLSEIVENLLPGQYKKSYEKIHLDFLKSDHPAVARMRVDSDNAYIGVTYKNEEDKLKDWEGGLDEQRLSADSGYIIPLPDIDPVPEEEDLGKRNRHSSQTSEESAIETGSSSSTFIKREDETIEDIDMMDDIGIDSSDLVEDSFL

[10] = target: TTBK1 (Homo sapiens, UniProt Q5TCY1); settings: 1 μM; Run 1, Run 2
[11] = target: SYK (Homo sapiens, UniProt P43405); settings: 1 μM; Run 1, Run 2

| SMILES | % enzyme activity [1] [%] | remaining activity at 1 µM [2] [%] | % enzyme activity [3] [%] | remaining activity at 1 µM [4] [%] | % enzyme activity [5] [%] | remaining activity at 1 µM [5] [%] | remaining activity at 1 µM [6] [%] | remaining activity at 1 µM [7] [%] | remaining activity at 1 µM [8] [%] | % enzyme activity [9] [%] | % enzyme activity [10] [%] | % enzyme activity [11] [%] |
| --- | --- | --- | --- | --- | --- | --- | --- | --- | --- | --- | --- | --- |
| COc1cc(-c2cncc(-c3ccc(N4C[C@@H](C)N(C)[C@@H](C)C4)cc3)c2C)cc(F)c1C(N)=O [Compound 26c, 2-Fluoro-6-methoxy-4-(4-methyl-5-(4-((3R,5S)-3,4,5-trimethylpiperazin-1-yl)phenyl)pyridin-3-yl)benzamide] | 93.51 | 105 | 96.94 | 95.4 | 105.33 | 106 | 89.8 | 102 | 98.4 | 81.08 | 98.52 | 101.24 |
| COc1cc(-c2cncc(-c3ccc(N4CCN(C)CC4)cc3)c2C)cc(F)c1C(N)=O [Compound 26a, 2-Fluoro-6-methoxy-4-(4-methyl-5-(4-(4-methylpiperazin-1-yl)phenyl)pyridin-3-yl)benzamide] | 91.72 | 106 | 88.77 | 103 | 97.44 | 103 | 84.7 | 104 | 95 | 81.22 | 96.78 | 100.12 |
